Source: patent US20230340607A1, “COMPOSITIONS AND METHODS FOR DETECTING GENE FUSIONS OF RAD51AP1 AND DYRK4 AND FOR DIAGNOSING AND TREATING CANCER” (UNIVERSITY OF PITTSBURGH-OF THE COMMONWEALTH SYSTEM OF …, priority 2020, published 2023)
Entries after “also recorded” stand apart in the source; their conditions may differ.

Key:
Assay type in all cases: cell-based, human
[1] = test system: MDAMB361 cells; test: Clonogenic assay, MDAMB361 cells
Method: (§1) Since MDAMB361 is a HER2 positive cell line we also assessed the therapeutic effect of lapatinib treatment alone or in combination with trametinib.
(§2) Clonogenic assay. The E9-E2 and wtRAD51AP1 expressing T47D cells were seeded at a density of 1000 cells/well in a 6-well plate with or without 200 ng/ml doxycycline treatment and incubated for 14-21 days. The colonies were stained with 0.5% crystal violet in 50% ethanol and counted using GelCount (Oxford Optronix Ltd.). The Trametinib (MEKi) and Lapatinib (EGFR/HER2 inhibitor) used for in vitro therapeutic studies were purchased from Selleck Chemicals. To test their therapeutic effects in the engineered T47D cells and other cell lines, cells (5000-10000, depending on the doubling time) were plated in 24-well for 24 hours prior to treatment with growth media containing trametinib, lapatinib or DMSO was replaced every 4 days for approximately 2 weeks. After this, cells were stained with 0.5% crystal violet in water containing 50% ethanol for 15 minutes at room temperature. The area and intensity of each well was measured using Image J. with Colony Area Plug In.

[2] = test system: T47D cells inducibly expressing RAD51AP1-DYRK4 (E9-E2); test: Clonogenic assay, T47D cells inducibly expressing RAD51AP1-DYRK4 (E9-E2)
Method: (§3) Next, the sensitivity of the engineered T47D cells inducibly expressing RAD51AP1-DYRK4 or wtRAD51AP1 to MEK inhibition was assessed. The first FDA approved MEK inhibitor currently under phase II clinical trial for triple negative breast cancer (NCI 9455) called Trametinib was used for MEK inhibition. MEK inhibition requires longer term drug exposure to exert therapeutic effect (Xue, Z. et al. (2018)). Therefore, clonogenic assays on the T47D models were performed to assess the cell viability following trametinib treatment in the presence or absence of doxycycline induction. Since T47D cells express EGFR, the cells were also treated with lapatinib to observe the combinatory effect.
as §2

[3] = test system: MAP3K1 protein level and JNK-JUN phosphorylation; test: Western blot of engineered T47D cells after trametinib: MAP3K1/JNK/JUN; settings: 0.5uM trametinib, 24 hours
Method: (§4) Compensative HER2/PI3K/AKT and MAP3K1/JNK/JUN activation has been reported to mediate resistance to MEK inhibitors (Avivar-Valderas, A. et al. (2018); Maher, C.A. et al. (2009)). We thus examined if RAD51AP1-DYRK4 and wtRAD51AP1 differentially modulate these survival pathways following MEK inhibition. To test this, we treated the engineered T47D cells with 0.5uM of trametinib or vehicle for 24 hours, to assess the early signaling changes following trametinib treatment. […] In contrast, this compensatory signaling was activated in T47D cells overexpressing wtRAD51AP1 following MEK inhibition (FIG. 7A). In addition, RAD51AP1-DYRK4 also repressed MAP3K1 protein level and JNK-JUN phosphorylation under MEK inhibition.
(§5) Western blot. For immunoblot analysis, E9-E2 and wtRAD51AP1 expression was induced in transduced T47D cells with 200 ng/ml doxycycline for one week. Total proteins were extracted by homogenizing the cells in RIPA Lysis Buffer (Sigma-Aldrich), supplemented with complete protease inhibitor cocktail tablet (Roche Diagnostics), 50 mM beta-Glycerophosphate, 1 mM sodium orthovanadate, 1 mM sodium fluoride, and 1 mM PMSF. Thirty micrograms of protein extracts were denatured in sample buffer, separated by SDS-PAGE, and transferred onto a nitrocellulose membrane (Invitrogen). The membranes were blocked and incubated overnight at 4° C. with primary antibodies. […]

[4] = test system: HER2/PI3K/AKT/Raptor activation; test: Western blot of engineered T47D cells after trametinib: HER2/PI3K/AKT/Raptor; settings: 0.5uM trametinib, 24 hours
Method: as §4, §5

[5] = test system: T47D cells inducibly expressing wtRAD51AP1; test: Clonogenic assay, T47D cells inducibly expressing wtRAD51AP1; settings: induction of wtRAD51AP1 expression
Method: as §3
Clonogenic assay. The E9-E2 and wtRAD51AP1 expressing T47D cells were seeded at a density of 1000 cells/well in a 6-well plate with or without 200 ng/ml doxycycline treatment and incubated for 14-21 days. The colonies were stained with 0.5% crystal violet in 50% ethanol and counted using GelCount (Oxford Optronix Ltd.). The Trametinib (MEKi) and Lapatinib (EGFR/HER2 inhibitor) used for in vitro therapeutic studies were purchased from Selleck Chemicals. […] The area and intensity of each well was measured using Image J. with Colony Area Plug In.

[6] = test system: HCC1937 cells; test: Clonogenic assay, HCC1937 cells; settings: HCC1937 overexpressing RAD51AP1-DYRK4, compared to MCF7, HCC38, HCC1428, and ZR-75-30 cell lines
Method: as §1, §2

[7] = T47D cells overexpressing RAD51AP1-DYRK4

Row | SMILES | therapeutic effect of lapatinib alone (clonogenic assay) ([1]; MDAMB361, HER2 positive) | therapeutic effect of lapatinib in combination with trametinib (clonogenic assay) ([1]; MDAMB361, combination with trametinib) | therapeutic benefit of lapatinib alone (clonogenic assay) ([2]; engineered T47D cells) | therapeutic benefit of lapatinib in combination with trametinib (clonogenic assay) ([2]; engineered T47D cells, combination with trametinib) | MAP3K1/JNK/JUN signaling following MEK inhibition (Western blot) ([3]; T47D cells ectopically expressing wtRAD51AP1) | MAP3K1 protein level and JNK-JUN phosphorylation under MEK inhibition (Western blot) [3, 7] | HER2/PI3K/AKT/Raptor activation under MEK inhibition (Western blot) [4, 7] | compensatory HER2/PI3K/AKT/Raptor signaling following MEK inhibition (Western blot) ([4]; T47D cells overexpressing wtRAD51AP1) | sensitivity to trametinib treatment (clonogenic assay) ([1]; MDAMB361 overexpressing RAD51AP1-DYRK4, compared to MCF7, HCC38, HCC1428, and ZR-75-30 cell lines) | increased sensitivity to trametinib (clonogenic assay, cell viability) [5] | increased sensitivity to trametinib (clonogenic assay, cell viability) ([5]; listed as Trametinib) | sensitivity to trametinib (clonogenic assay, cell viability) ([2]; T47D cells, doxycycline-induced ectopic RAD51AP1-DYRK4 (E9-E2) expression vs absence of induction) | sensitivity to trametinib treatment (clonogenic assay) [6]
1 | CS(=O)(=O)CCNCc1ccc(-c2ccc3ncnc(Nc4ccc(OCc5cccc(F)c5)c(Cl)c4)c3c2)o1 [lapatinib, Lapatinib] | highly resistant; also recorded: resistance | highly sensitive | did not result in additional therapeutic benefits; also recorded: did not show additional therapeutic benefits | did not result in additional therapeutic benefits; also recorded: did not show additional therapeutic benefits |  |  |  |  |  |  |  |  | 
2 | CC(=O)Nc1cccc(-n2c(=O)n(C3CC3)c(=O)c3c(Nc4ccc(I)cc4F)n(C)c(=O)c(C)c32)c1 [trametinib] |  |  |  |  | did not observe activation | repressed | attenuates | activated; also recorded: compensatory activation | markedly higher sensitivity | not observed | not | significantly increased sensitivity | markedly higher sensitivity
